The values below come from PMC9898036, “VIP152 is a selective CDK9 inhibitor with pre-clinical in vitro and in vivo efficacy in chronic lymphocytic leukemia” (Leukemia, 2022).

One experiment has as its system CLL patient samples. In words: Western blot of CLL patient samples. It is filed as cell-based, human. The conditions noted are these: 1 µM, 8 h. The method, then:
Lysate concentration was quantified using Pierce™ BCA Protein Assay Kit (ThermoFiser Scientific – cat. 23225) and proteins were analyzed via immunoblot. A full list of antibodies may be found in the supplementary methods section. All images are representative of three independent experiments.
P-TEFb’s role in regulating transcription through POLII CTD phosphorylation is a canonical function of this complex. To interrogate the transcriptional changes associated with VIP152 treatment, we treated B-cells, isolated from four patients with treatment-naïve CLL, with 1 µM VIP152 or DMSO for two hours followed by fluorescence-assisted cell sorting for 500 live (Sytox^−), CD45^+/CD5^+/CD19^+ cells (Fig. 3A). Our group has previously defined an analysis pipeline, named CLEAR, which identifies evenly distributed reads for differentially expressed gene (DEG) analysis. […] When we looked at the expression of these differentially abundant genes via an unsupervised clustered heatmap, we noted that there was high concordance between the patient samples with clustering dependent on treatment group (Fig. 3C). The treatment did induce decreased transcript abundance of genes previously reported to be controlled by CDK9 activity, namely JUNB, BTG1, and MCL1 [45, 46]. Downregulation of the anti-apoptotic MCL1 (LFC: −1.231056 & p-value = 0.02) likely contributes to the susceptibility of primary CLL cells to apoptosis (Fig. 2F, G). […] It has been established that AU-rich element (ARE) mRNA molecules are under tight temporal regulation and control a variety of cellular processes. Moreover, the relationship between P-TEFb mediated transcription and ARE-bearing mRNA has previously been described. […] We appreciate from our limiting-cell RNA sequencing experiments that the loss of tristetrapolin (ZFP36) transcripts (LFC: −4.02; adjusted p-value: 7.97*10^−40) and the upregulation of ribosomal transcripts, likely correspond to a possible compensatory mechanism by which these cells attempt to improve translational output and maximize transcript maintenance in response to VIP152-induced transcriptional shutdown. […] We looked at transcripts which had been shown by photoactivatable ribonucleoside cross-linking and immunoprecipitation (PAR-CLIP) to interact with ZFP36 [50]. […]
Fig. 3 VIP152 induces rapid transcriptomic changes. […] E–G 7 CLL patient samples were treated for 8 h with 1 µM VIP152 and then analyzed for protein expression by western blot (E, F) and ZFP36, ZFP36L1, and ZFP36L2 expression by qRT-PCR (G). H–L 5 CLL patient samples were treated for 8 h with 1 µM VIP152 and then supplemented with 500 nM Actinomycin-D. RNA was taken at varying timepoints and analyzed via qRT-PCR. M mRNA half-lives of analyzed transcripts in (H–L) as determined by nonlinear regression using a one-phase decay method.

The next experiment concerns the target LRRK2(G2019S) (Homo sapiens, UniProt Q5S007, G2019S). In words: KINOMEscan: LRRK2(G2019S). It is filed as binding. The conditions noted are these: 1000 nM, read-out: Percent Control.
The target in another experiment is EGFR(S752-I759del) (Homo sapiens, UniProt P00533, DEL752-759). Nature of the experiment: KINOMEscan: EGFR(S752-I759del). In kind it is binding. The conditions noted are these: 1000 nM, read-out: Percent Control.
The next experiment addresses CTK (Homo sapiens, UniProt P42679). Nature of the experiment: KINOMEscan: CTK. The conditions noted are these: 1000 nM, read-out: Percent Control. In kind it is binding.
A further experiment concerns the target MST4 (Homo sapiens, UniProt Q9P289). Nature of the experiment: KINOMEscan: MST4. In kind it is binding. The conditions noted are these: 1000 nM, read-out: Percent Control.
The target of the next experiment is MEK1 (Homo sapiens, UniProt Q02750). Nature of the experiment: KINOMEscan: MEK1. It is filed as binding. The conditions noted are these: 1000 nM, read-out: Percent Control.
In the next experiment the target is Opiate μ(OP3, MOP) (Homo sapiens, UniProt P35372). Nature of the experiment: Eurofins Diversity Panel. It is filed as binding. The conditions noted are these: hum, Conc. 10 μM.
Another experiment addresses Adenosine A1 (Homo sapiens, UniProt P30542). Nature of the experiment: Eurofins Diversity Panel. It is filed as binding. The conditions noted are these: hum, Conc. 10 μM.
A further experiment deals with OSU-CLL. In words: MTS proliferation assay. In kind it is cell-based. The conditions noted are these: Homo sapiens, 24, 48, and 72 h. In general terms: Tetrazolium dyes change colour on reduction, which living cells bring about.

MST4, sequence (Q9P289 whole entry): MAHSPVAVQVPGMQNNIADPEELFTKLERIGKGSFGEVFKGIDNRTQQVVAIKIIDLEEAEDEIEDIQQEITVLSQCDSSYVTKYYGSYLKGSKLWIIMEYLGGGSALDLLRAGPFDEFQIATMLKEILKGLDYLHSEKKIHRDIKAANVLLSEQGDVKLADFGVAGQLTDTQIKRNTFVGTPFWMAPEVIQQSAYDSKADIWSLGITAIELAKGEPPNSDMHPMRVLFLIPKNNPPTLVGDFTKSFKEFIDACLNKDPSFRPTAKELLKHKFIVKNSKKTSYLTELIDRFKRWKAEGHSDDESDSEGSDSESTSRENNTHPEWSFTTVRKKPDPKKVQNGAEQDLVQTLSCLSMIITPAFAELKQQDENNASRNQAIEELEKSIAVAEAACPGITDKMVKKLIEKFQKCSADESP
CTK, sequence (P42679 whole entry): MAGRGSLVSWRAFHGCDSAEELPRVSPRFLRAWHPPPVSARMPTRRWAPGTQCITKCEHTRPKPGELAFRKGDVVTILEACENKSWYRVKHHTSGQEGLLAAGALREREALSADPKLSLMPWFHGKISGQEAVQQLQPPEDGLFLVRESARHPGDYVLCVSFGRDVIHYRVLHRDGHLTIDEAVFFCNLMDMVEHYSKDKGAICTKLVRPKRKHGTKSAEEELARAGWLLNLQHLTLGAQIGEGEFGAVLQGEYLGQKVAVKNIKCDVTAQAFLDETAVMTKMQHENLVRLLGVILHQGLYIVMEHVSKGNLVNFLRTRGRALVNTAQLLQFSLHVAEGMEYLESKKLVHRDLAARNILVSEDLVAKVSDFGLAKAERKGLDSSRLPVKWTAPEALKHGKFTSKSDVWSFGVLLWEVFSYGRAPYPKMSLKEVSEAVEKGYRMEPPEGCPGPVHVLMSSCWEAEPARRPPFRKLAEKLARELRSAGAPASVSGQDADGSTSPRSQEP
Adenosine A1, sequence (P30542 whole entry): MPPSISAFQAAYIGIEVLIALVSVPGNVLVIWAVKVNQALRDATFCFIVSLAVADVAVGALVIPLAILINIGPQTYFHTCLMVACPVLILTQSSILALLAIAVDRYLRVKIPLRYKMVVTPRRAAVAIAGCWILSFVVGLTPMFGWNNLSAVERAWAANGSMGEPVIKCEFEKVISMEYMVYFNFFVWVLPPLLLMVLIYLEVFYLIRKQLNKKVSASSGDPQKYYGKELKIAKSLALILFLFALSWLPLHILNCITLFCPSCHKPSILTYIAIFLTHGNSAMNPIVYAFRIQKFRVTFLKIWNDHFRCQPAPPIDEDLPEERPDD
LRRK2(G2019S), sequence (Q5S007 whole entry G2019S): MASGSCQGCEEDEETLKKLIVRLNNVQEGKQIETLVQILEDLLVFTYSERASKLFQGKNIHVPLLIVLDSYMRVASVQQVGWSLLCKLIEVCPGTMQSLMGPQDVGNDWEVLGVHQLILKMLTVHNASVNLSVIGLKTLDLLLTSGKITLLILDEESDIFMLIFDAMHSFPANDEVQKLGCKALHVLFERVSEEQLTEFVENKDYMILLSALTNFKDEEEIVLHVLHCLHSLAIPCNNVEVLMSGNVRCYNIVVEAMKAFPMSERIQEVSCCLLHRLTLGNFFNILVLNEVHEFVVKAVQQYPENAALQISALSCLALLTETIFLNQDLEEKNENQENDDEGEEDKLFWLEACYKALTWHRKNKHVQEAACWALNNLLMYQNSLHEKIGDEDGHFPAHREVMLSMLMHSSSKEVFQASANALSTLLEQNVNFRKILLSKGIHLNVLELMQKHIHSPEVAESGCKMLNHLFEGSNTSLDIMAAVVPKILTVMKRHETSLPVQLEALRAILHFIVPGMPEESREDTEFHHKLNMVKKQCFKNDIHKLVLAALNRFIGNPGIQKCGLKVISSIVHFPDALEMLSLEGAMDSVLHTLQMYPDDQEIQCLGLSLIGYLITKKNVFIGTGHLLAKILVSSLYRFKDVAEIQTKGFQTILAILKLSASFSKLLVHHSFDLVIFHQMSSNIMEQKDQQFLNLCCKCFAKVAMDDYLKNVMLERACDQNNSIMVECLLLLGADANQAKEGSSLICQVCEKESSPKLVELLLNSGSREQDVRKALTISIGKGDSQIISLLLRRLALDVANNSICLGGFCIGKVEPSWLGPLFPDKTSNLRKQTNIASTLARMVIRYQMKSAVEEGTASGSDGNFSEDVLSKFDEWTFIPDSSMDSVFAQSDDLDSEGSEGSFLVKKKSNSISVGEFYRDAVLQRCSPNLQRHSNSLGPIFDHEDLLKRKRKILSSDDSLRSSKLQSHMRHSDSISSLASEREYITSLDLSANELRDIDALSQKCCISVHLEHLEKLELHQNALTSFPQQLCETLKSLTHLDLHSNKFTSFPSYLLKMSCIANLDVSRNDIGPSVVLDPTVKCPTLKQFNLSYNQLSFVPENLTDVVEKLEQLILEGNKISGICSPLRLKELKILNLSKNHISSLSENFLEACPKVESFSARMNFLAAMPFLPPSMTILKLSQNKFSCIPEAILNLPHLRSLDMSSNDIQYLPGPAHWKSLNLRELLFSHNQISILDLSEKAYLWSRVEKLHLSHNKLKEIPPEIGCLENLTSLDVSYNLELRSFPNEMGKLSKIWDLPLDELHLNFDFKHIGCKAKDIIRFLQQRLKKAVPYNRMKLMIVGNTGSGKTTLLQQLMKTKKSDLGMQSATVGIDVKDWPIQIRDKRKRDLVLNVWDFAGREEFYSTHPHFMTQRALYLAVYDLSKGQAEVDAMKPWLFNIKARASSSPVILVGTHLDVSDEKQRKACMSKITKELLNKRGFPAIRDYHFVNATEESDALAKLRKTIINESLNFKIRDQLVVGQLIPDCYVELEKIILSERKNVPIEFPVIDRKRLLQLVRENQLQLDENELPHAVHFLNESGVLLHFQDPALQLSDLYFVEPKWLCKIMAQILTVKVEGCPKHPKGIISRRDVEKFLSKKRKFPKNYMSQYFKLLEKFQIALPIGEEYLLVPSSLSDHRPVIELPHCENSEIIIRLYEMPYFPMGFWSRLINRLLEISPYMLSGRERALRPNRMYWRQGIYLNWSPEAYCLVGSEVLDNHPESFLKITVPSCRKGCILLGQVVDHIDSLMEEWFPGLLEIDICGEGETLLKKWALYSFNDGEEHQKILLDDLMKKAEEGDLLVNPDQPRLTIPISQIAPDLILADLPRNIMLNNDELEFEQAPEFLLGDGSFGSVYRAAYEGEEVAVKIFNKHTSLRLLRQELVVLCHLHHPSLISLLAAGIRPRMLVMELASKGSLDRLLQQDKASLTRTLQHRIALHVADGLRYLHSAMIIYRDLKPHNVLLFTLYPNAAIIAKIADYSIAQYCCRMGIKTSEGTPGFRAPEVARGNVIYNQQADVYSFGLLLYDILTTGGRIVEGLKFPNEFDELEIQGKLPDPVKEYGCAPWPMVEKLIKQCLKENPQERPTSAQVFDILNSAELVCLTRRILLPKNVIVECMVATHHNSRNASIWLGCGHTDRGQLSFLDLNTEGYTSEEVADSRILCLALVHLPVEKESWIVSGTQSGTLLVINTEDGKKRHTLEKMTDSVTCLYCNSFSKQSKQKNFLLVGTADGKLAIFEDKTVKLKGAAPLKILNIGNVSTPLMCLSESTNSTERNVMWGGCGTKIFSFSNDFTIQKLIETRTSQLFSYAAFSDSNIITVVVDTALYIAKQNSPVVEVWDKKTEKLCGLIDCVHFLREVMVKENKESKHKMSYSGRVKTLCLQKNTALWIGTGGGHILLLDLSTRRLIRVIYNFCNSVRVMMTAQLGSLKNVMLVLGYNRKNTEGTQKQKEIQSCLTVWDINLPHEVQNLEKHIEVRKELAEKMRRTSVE
EGFR(S752-I759del), sequence (P00533 with tags, fused parts or gaps DEL752-759 limits assumed): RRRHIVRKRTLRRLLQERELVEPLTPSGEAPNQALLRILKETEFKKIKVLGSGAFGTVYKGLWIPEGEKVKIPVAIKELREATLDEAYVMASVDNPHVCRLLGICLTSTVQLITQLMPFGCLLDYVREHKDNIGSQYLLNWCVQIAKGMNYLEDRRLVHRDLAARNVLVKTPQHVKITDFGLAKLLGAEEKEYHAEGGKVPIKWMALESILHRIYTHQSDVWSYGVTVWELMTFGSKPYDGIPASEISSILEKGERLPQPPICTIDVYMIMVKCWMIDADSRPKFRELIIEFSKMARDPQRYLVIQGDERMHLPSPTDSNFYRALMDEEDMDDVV
MEK1, sequence (Q02750 whole entry): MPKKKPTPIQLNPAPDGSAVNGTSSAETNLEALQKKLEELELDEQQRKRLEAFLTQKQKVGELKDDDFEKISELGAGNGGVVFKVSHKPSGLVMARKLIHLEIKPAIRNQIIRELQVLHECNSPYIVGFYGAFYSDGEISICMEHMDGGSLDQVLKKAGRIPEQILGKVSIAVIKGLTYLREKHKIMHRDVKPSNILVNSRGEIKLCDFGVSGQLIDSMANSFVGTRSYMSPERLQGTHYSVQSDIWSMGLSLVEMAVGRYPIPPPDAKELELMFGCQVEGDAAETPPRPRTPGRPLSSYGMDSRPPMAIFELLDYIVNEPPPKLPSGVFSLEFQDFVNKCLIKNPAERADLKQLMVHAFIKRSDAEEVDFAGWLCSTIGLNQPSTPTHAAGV
Opiate μ(OP3, MOP), sequence (P35372 whole entry): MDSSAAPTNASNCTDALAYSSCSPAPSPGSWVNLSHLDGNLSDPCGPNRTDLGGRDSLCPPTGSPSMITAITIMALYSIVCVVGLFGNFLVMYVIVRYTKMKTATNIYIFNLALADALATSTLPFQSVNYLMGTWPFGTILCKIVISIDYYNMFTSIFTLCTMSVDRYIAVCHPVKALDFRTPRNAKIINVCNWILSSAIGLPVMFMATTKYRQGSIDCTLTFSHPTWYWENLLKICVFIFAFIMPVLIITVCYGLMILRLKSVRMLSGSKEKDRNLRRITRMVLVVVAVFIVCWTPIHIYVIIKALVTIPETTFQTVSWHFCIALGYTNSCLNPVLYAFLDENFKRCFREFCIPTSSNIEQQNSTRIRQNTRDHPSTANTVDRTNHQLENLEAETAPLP

For orientation: inhibition means the drop in the measured response relative to a control, in per cent. Low values mean a response near the control, high ones a response far below the control. The term IC50 denotes the concentration at which inhibition is half-maximal. As to `COc1cc(F)ccc1-c1cc(Nc2cc(CS(C)(=N)=O)ccn2)ncc1F` (stereo not drawn) [VIP152], the BTG1 protein result in the experiment with CLL patient samples is recorded as “not”. In addition, in the experiment with CLL patient samples, the JUNB protein result is “decrease”. Further, the MCL1 protein entry with CLL patient samples was “decrease”. Further, the “expression of tristetrapolin (ZFP36)” value in the experiment with CLL patient samples (seven CLL patient samples) is reported as “decreased expression”. Moreover, the remaining binding at 1 µM at LRRK2(G2019S) is 86%; on EGFR(S752-I759del) it was 97%; on CTK, 84%; on MST4, 89%; on MEK1, 85%. For the same compound, the inhibition at 10 µM was determined as 8% at Opiate μ(OP3, MOP) and 4% on Adenosine A1. The compound further displayed an IC50 with OSU-CLL of roughly 100 nM.
